From PubChem BioAssay (NCI)
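Cultured in 96-well plates, cells were exposed to test compound for 48 hours across five concentrations. Here, GI50 denotes the concentration required for 50% inhibition of growth. TGI is the concentration that stops growth completely.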

What was measured:
Test in all cases: NCI tumour cell line growth inhibition, 48 h
DLD-1 colon = system: DLD-1 colon
KM20L2 colon = system: KM20L2 colon
LXFL 529 NSCLC = system: LXFL 529 NSCLC
XF 498 CNS = system: XF 498 CNS
DMS 273 small cell lung = system: DMS 273 small cell lung
HOP-18 NSCLC = system: HOP-18 NSCLC
RXF-631 renal = system: RXF-631 renal
SNB-78 CNS = system: SNB-78 CNS
P388 leukemia = system: P388 leukemia
SN12K1 renal = system: SN12K1 renal
P388/ADR leukemia = system: P388/ADR leukemia

In the case of `CNC(C)(C)Cc1ccc(Cl)cc1`, the TGI (DLD-1 colon) was > 100 µM, the TGI (KM20L2 colon) was > 100 µM and the TGI (LXFL 529 NSCLC) was > 100 µM. For the same compound, the TGI (XF 498 CNS) was > 100 µM.

`COC(=O)Cc1cc(O)c2c(c1O)C(=O)c1ccccc1C2=O` was tested, and the TGI (DLD-1 colon) was > 100 µM, the TGI (DMS 273 small cell lung) was > 100 µM and the TGI (HOP-18 NSCLC) was > 100 µM. For the same compound, the TGI (KM20L2 colon) was > 100 µM, the TGI (LXFL 529 NSCLC) was > 100 µM and the TGI (RXF-631 renal) was > 100 µM. For the same compound, the TGI (SNB-78 CNS) was > 100 µM.

In the case of `C1=C(c2ccccc2)SC(N2CCCCC2)S1` (stereo unspecified), the TGI (DLD-1 colon) was > 100 µM, the TGI (DMS 273 small cell lung) was > 100 µM and the TGI (KM20L2 colon) was > 100 µM. For the same compound, the TGI (LXFL 529 NSCLC) was > 100 µM, the TGI (SNB-78 CNS) was > 100 µM and the TGI (XF 498 CNS) was > 100 µM.

In the case of `N=C1C(=N)c2ccccc2-c2ccccc21.[Cl-].[Ru+2].c1ccc(-c2ccccn2)nc1.c1ccc(-c2ccccn2)nc1`, the GI50 (KM20L2 colon) was > 100 µM, the TGI (KM20L2 colon) was > 100 µM and the GI50 (LXFL 529 NSCLC) was > 100 µM. For the same compound, the TGI (LXFL 529 NSCLC) was > 100 µM, the GI50 (SNB-78 CNS) was > 100 µM and the TGI (SNB-78 CNS) was > 100 µM.

For `COC1=NCc2ccccc2-c2ccccc21`, the TGI (DLD-1 colon) was > 100 µM, the TGI (DMS 273 small cell lung) was > 100 µM and the TGI (HOP-18 NSCLC) was > 100 µM. The TGI (SNB-78 CNS) was > 100 µM and the TGI (XF 498 CNS) was > 100 µM.

For `CCCCCOc1ccc(C=Nc2ccc(CCc3ccc(N=Cc4ccc(OCCCCC)cc4)cc3)cc2)cc1`, the TGI (DLD-1 colon) was > 100 µM, the TGI (DMS 273 small cell lung) was > 100 µM and the TGI (HOP-18 NSCLC) was > 100 µM. The TGI (KM20L2 colon) was > 100 µM, the TGI (P388 leukemia) was > 100 µM and the TGI (SN12K1 renal) was > 100 µM. For the same compound, the TGI (SNB-78 CNS) was > 100 µM and the TGI (XF 498 CNS) was > 100 µM.

`CCOC(=O)C(C#N)(Cc1c[nH]c2ccccc12)NC(C)=O` (stereo unspecified) was tested, and the TGI (DLD-1 colon) was > 100 µM, the TGI (DMS 273 small cell lung) was > 100 µM and the TGI (KM20L2 colon) was > 100 µM. The TGI (LXFL 529 NSCLC) was > 100 µM.

In the case of `Cc1cc([NH-])c([NH-])cc1C.[Cl][Pt+2][Cl]`, the GI50 (DLD-1 colon) was 8 µM, the TGI (DLD-1 colon) was 28.9 µM and the GI50 (HOP-18 NSCLC) was > 82 µM. The TGI (HOP-18 NSCLC) was > 100 µM, the GI50 (KM20L2 colon) was 20.2 µM and the TGI (KM20L2 colon) was > 81.9 µM. For the same compound, the GI50 (P388 leukemia) was 2.42 µM, the TGI (P388 leukemia) was 10.2 µM and the GI50 (P388/ADR leukemia) was 2.36 µM. For the same compound, the TGI (P388/ADR leukemia) was 6.97 µM, the GI50 (SN12K1 renal) was 13.5 µM and the TGI (SN12K1 renal) was 32 µM. The GI50 (SNB-78 CNS) was 26.5 µM, the TGI (SNB-78 CNS) was > 96 µM and the GI50 (XF 498 CNS) was 19.7 µM. It also gave a TGI (XF 498 CNS) of 46.4 µM.
